Reference: patent US20240279232A1, “USE OF SUBSTITUTED 5-(4-METHYL-6-PHENYL-4H-BENZO[F]IMIDAZO[1,5-A][1,4] DIAZEPIN-3-YL)-1,2,4-O[…] THE TREATMENT OF INFLAMMATORY CONDITIONS” (priority 2021, published 2024)

Columns and labels:
RAW macrophages [1] = assay: NO production (Griess assay), LPS/IFNγ-activated RAW264.7 macrophages; format: cell-based, mouse; conditions: for Inhibition of NO production (%) RAW macrophages 10 μM: 24 hours, 1 μM GABA, LPS/IFNγ; for inhibition at 10 µM: Mus musculus, Macrophage, 24 h
Mouse microglia [2] = assay: NO production (Griess assay), LPS/IFNγ-activated mouse microglia; format: cell-based; conditions: for Inhibition of NO production (%) Mouse microglia 10 μM: 24 hours, 1 μM GABA, LPS/IFNγ; for inhibition at 10 µM: Mus musculus, Microglia, 24 h
RAW macrophages [3] = assay: Cell viability (CellTiter-Glo), RAW macrophages; format: cell-based, mouse; conditions: CellTiter-Glo
Mouse microglia [4] = assay: Cell viability (CellTiter-Glo), mouse microglia; format: cell-based; conditions: 50 μM, CellTiter-Glo
Method in brief: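 Mouse microglia (1×10^6 cells/mL) activated with 50 ng/ml LPS plus 150 U/mL IFNγ, incubated with compounds ~24 h at 37° C. Viability of remaining cells read by CellTiter-Glo luminescence after supernatant removal for Griess NO assay; […].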

HEK293 = assay: Viability assay (CellTiter-Glo), HEK293; format: cell-based, human; conditions: for Cell viability (%) HEK293 120 μM: CellTiter-Glo
Experimental: (§1) The screen identified several compounds that reduced NO in activated microglia and macrophages. The tested compounds included achiral and chiral imidazodiazepines and benzodiazepines. In general, microglia were more sensitive to compound treatment with more pronounced reduction of NO than macrophages. […] Cell viability assays with HEK293 (kidney) and HepG2 (liver) cells were conducted in a concentration dependent manner. A limited number of compounds, such as GL-III-63, GL-III-76A, and GL-III-77, were toxic at 120 μM.
(§2) Viability assay. Human liver hepatocellular carcinoma (HEPG2) and human embryonic kidney 293T (HEK293T) cell lines were purchased (ATCC) and cultured in 75 cm^2 flasks (CellStar). Cells were grown in DMEM/High Glucose (Hyclone, #SH3024301) media to which non-essential amino acids (Hyclone, #SH30238.01), 10 mM HEPES (Hyclone, #SH302237.01), 5×10^6 units of penicillin and streptomycin (Hyclone, #SV30010), and 10% of heat inactivated fetal bovine serum (Gibco, #10082147) were added. Cells were harvested using 0.05% Trypsin (Hyclone, #SH3023601), washed with PBS, and dispensed into sterile white, optical bottom 384-well plates (NUNC, #142762). After three hours, small molecule DMSO solutions were transferred with a Tecan Freedom EVO liquid handling system equipped with a 100 nL pin tool (V&P Scientific). The controls were 3-dibutylamino-1-(4-hexyl-phenyl)-propan-1-one (25 mM in DMSO, positive control) and DMSO (negative control). The cells were incubated for 48 hours followed by the addition of CellTiter-Glo™, a luminescence-based cell viability assay (Promega, Madison, WI). All luminescence readings were performed on a Tecan Infinite M1000 plate reader. The assay was carried out in quadruplet with two independent runs. The data were analyzed by nonlinear regression.

HEPG2 = assay: Viability assay (CellTiter-Glo), HEPG2; format: cell-based, human; conditions: for Cell viability (%) HEPG2 120 μM: CellTiter-Glo
Experimental: as §1, §2

SMILES | Inhibition of NO production (%) RAW macrophages 10 μM (RAW macrophages [1]) [%] | Inhibition of NO production (%) Mouse microglia 10 μM (Mouse microglia [2]) [%] | Cell viability (%) RAW macrophages 50 μM (RAW macrophages [3]) [%] | Cell viability (%) Mouse microglia 50 μM (Mouse microglia [4]) [%] | Cell viability (%) HEK293 120 μM (HEK293) [%] | Cell viability (%) HEPG2 120 μM (HEPG2) [%] | toxicity at 120 μM (in words) (HEK293; HEK293, 120 μM) | toxicity at 120 μM (in words) (HEPG2; HepG2, 120 μM) | inhibition at 10 µM (RAW macrophages [1]) [%] | inhibition at 10 µM (Mouse microglia [2]) [%]
CCNC(=O)c1ncn2c1[C@@H](C)N=C(c1ccccc1F)c1cc(Br)ccc1-2 [GL-III-67] | 4 ± 2 | 33 ± 1 | 100 ± 7 | 85 ± 10 | 66 ± 6 | 100 ± 9 |  |  |  | 
CC1N=C(c2ccccc2F)c2cc(C#C[Si](C)(C)C)ccc2-n2cnc(-c3cnco3)c21 (centres unmarked) [GL-III-72] | 57 ± 7 | 21 ± 7 | 77 ± 4 | 100 ± 10 | 64 ± 8 | 100 ± 3 |  |  |  | 
CC1N=C(c2ccccc2F)c2cc(Br)ccc2-n2cnc(C=O)c21 (centres unmarked) [GL-III-75] | 3 ± 5 | 44 ± 2 | 100 ± 2 | 87 ± 7 | 73 ± 2 | 74 ± 6 |  |  |  | 
CC1N=C(c2ccccc2F)c2cc(C#C[Si](C)(C)C)ccc2-n2cnc(-c3cnco3)c21 (centres unmarked) [GL-III-77] | 29 ± 2 | 31 ± 2 | 85 ± 3 | 98 ± 4 | 0 ± 2 | 0 ± 4 | toxic | toxic |  | 
C#Cc1ccc2c(c1)C(c1ccccc1F)=NC(C)c1c(C(=S)NC)ncn1-2 (centres unmarked) [GL-III-84] | 10 ± 5 | 32 ± 4 | 100 ± 12 | 96 ± 8 | 64 ± 5 | 100 ± 10 |  |  |  | 
C#Cc1ccc2c(c1)C(c1ccccc1F)=NC(C)c1c(C(=S)N(C)C)ncn1-2 (centres unmarked) [GL-III-85] | 0 ± 2 | 34 ± 8 | 100 ± 10 | 84 ± 12 | 70 ± 12 | 100 ± 11 |  |  |  | 
C#Cc1ccc2c(c1)C(c1ccccc1F)=NC(C)c1c(C(=S)NCC)ncn1-2 (centres unmarked) [GL-III-86] | 7 ± 4 | 39 ± 7 | 100 ± 14 | 99 ± 15 | 66 ± 10 | 100 ± 8 |  |  |  | 
C#Cc1ccc2c(c1)C(c1ccccc1F)=NC(C)c1c(C(=S)NC3CC3)ncn1-2 (centres unmarked) [GL-III-87] | 0 ± 1 | 23 ± 7 | 100 ± 7 | 100 ± 2 | 90 ± 10 | 100 ± 5 |  |  |  | 
C#Cc1ccc2c(c1)C(c1ccccn1)=N[C@H](C)c1c(-c3nc(CC)no3)ncn1-2 [GL-III-97] | 6 ± 1 | 11 ± 6 | 98 ± 3 | 100 ± 4 | 54 ± 9 | 100 ± 12 |  |  |  | 
CCc1noc(-c2ncn3c2[C@@H](C)N=C(c2ccccc2F)c2cc(Br)ccc2-3)n1 [GL-III-98, (R)-5-(8-Bromo-6-(2-fluorophenyl)-4-methyl-4H-benzo[f]imidazo[1,5-a][1,4]diazepin-3-yl)-3-ethyl-1,2,4-oxadiazole] |  |  | 100 ± 11 | 83 ± 6 | 42 ± 8 | 56 ± 5 |  |  | 1 ± 4 | 75 ± 9
CCc1noc(-c2ncn3c2CN=C(c2ccccn2)c2cc(Br)ccc2-3)n1 [GL-III-99] | 19 ± 3 | 49 ± 5 | 100 ± 9 | 95 ± 9 | 87 ± 11 | 93 ± 7 |  |  |  | 
CC(C)c1noc(-c2ncn3c2[C@@H](C)N=C(c2ccccc2F)c2cc(Br)ccc2-3)n1 [GL-IV-01, (R)-5-(8-Bromo-6-(2-fluorophenyl)-4-methyl-4H-benzo[f]imidazo[1,5-a][1,4]diazepin-3-yl)-3-isopropyl-1,2,4-oxadiazole] |  |  | 100 ± 9 | 100 ± 9 | 72 ± 8 | 100 ± 9 |  |  | 17 ± 7 | 56 ± 11
CC(C)c1noc(-c2ncn3c2[C@@H](C)N=C(c2ccccc2F)c2cc(C4CC4)ccc2-3)n1 [GL-IV-04, (R)-5-(8-Cyclopropyl-6-(2-fluorophenyl)-4-methyl-4H-benzo[f]imidazo[1,5-a][1,4]diazepin-3-yl)-3-isoproyl-1,2,4-oxadiazole] |  |  | 100 ± 7 | 86 ± 6 | 71 ± 6 | 100 ± 6 |  |  | 11 ± 2 | 62 ± 8
CCOC(=O)c1ncn2c1CN=C(c1ccccn1)c1cc(C3CC3)ccc1-2 [GL-IV-05] | 14 ± 3 | 59 ± 4 | 100 ± 6 | 88 ± 12 | 47 ± 3 | 100 ± 10 |  |  |  | 
C#Cc1ccc2c(c1)C(c1ccccc1F)=NC(C)c1c(C(=O)[O-])ncn1-2.[Na+] (centres unmarked) [GL-IV-17] | 5 ± 5 | 41 ± 5 | 100 ± 5 | 89 ± 9 | 67 ± 5 | 93 ± 8 |  |  |  | 
CC1N=C(c2ccccc2F)c2cc(Br)ccc2-n2cnc(C(=O)[O-])c21.[Na+] (centres unmarked) [GL-IV-18] | 10 ± 7 | 63 ± 9 | 98 ± 5 | 81 ± 10 | 88 ± 5 | 80 ± 14 |  |  |  | 
